Experimental data from patent US20170354152A1, “PESTICIDAL COMPOSITION AND METHOD FOR CONTROLLING PESTS” (priority 2015, published 2017).

Tests used:
Assay type in all cases: in vivo
[1] = tested on: southern root-knot nematode (Meloidogyne incognita); assay: Example 3: cup test, contaminated soil mixed with test agents, cucumber seeds, control value from root knot index; details: compound alone, 26th day after seeding, =100−the root knot index
Experimental: Soil contaminated with southern root-knot nematode (Meloidogyne incognita) was put in a 200 ml polypropylene cup, and predetermined amounts of test agents were added and mixed. Immediately after the addition of the test agents, the mixture was thoroughly mixed and then seeded with three seeds of cucumber. On the 26th day after seeding, the root knot index (0 to 100%) formed by nematode was visually determined.
As the test results, from the root knot index based on the root knot index in the non-treated area being 100, the control value (=100−the root knot index) was calculated, and the results are shown in Tables 3 and 4. Further, a theoretical value obtained by the Colby's formula (=Control value of compound A+Control value of compound B−((Control value of compound A×Control value of compound B)/100)) is also shown in brackets ( ) in Tables 3 and 4.

[2] = tested on: southern root-knot nematode (Meloidogyne incognita); assay: Test Example 1: immersion of second stage juveniles in chemical solution, mobility inhibition; details: compound alone, 24 hours, 25° C.
Experimental: About 50 larvae at second stage juveniles of southern root-knot nematode (Meloidogyne incognita) were immersed in a chemical solution diluted to a predetermined concentration with distilled water and kept for 24 hours in a constant temperature room at 25° C. […] From these values, the mobility inhibition rate was determined by the following formula.
Mobility inhibition rate (%)=[1-{(1-B/A)/(1-B′/A′)}]×100
Further, a theoretical value (%) of the mobility inhibition rate was calculated by the Colby's formula and is also shown in brackets ( ) in Table 1. The measured value (%) of the mobility inhibition rate is higher than the theoretical value (%), and thus, the composition of the present invention has a synergistic effect for controlling nematode.

[3] = tested on: southern root-knot nematode (Meloidogyne incognita); assay: Example 2: pot test, contaminated soil mixed with test agents, tomato seedlings, root knot index; details: compound alone, 35th day after transplantation, non-treated area being 100
Experimental: 1 Liter of sand soil obtained by mixing paddy steam sterilization soil, sand soil and soil contaminated with southern root-knot nematode (Meloidogyne incognita) in a volume ratio of 2:2:1, was put into a 1/1,000,000 ha pot, and predetermined amounts of test agents were added and mixed, Immediately after addition of the test agents, the mixture was sufficiently mixed, and then, seedlings of tomato (cultivar: kyoryoku bei ju) were transplanted. On the 35th day after transplantation, the root knot index (0 to 100%) formed by nematode was visually determined. The test was carried out by two replications.
Further, a theoretical value determined by the Colby's formula is shown in brackets ( ) in Table 2.

| Structure (SMILES) | Control value ([1]; 125 g/ha) | Control value ([1]; 188 g/ha) | Control value ([1]; 250 g/ha) | Control value ([1]; 375 g/ha) | Control value ([1]; 500 g/ha) | inhibition at 0.31 ppm ([2]; Meloidogyne incognita, 0.31 ppm, read-out: Mobility inhibition rate (%)) | inhibition at 0.63 ppm ([2]; Meloidogyne incognita, 0.63 ppm, read-out: Mobility inhibition rate (%)) | inhibition at 1.25 ppm ([2]; Meloidogyne incognita, 1.25 ppm, read-out: Mobility inhibition rate (%)) | inhibition at 2.5 ppm ([2]; Meloidogyne incognita, 2.5 ppm, read-out: Mobility inhibition rate (%)) | inhibition at 5 ppm ([2]; Meloidogyne incognita, 5 ppm, read-out: Mobility inhibition rate (%)) | Average root knot index ([3]; 3000 g/ha) | Control value ([1]; 200 g/ha) | Mobility inhibition rate (%) ([2]; 0.31 ppm) | Mobility inhibition rate (%) ([2]; 0.63 ppm) | Mobility inhibition rate (%) ([2]; 1.25 ppm) | Mobility inhibition rate (%) ([2]; 2.5 ppm) | Mobility inhibition rate (%) ([2]; 5 ppm) | Average root knot index ([3]; 2500 g/ha) |
| --- | --- | --- | --- | --- | --- | --- | --- | --- | --- | --- | --- | --- | --- | --- | --- | --- | --- | --- |
| CCOP(=O)(SC(C)CC)N1CCSC1=O (stereo not drawn) [Fosthiazate, fosthiazate] | 70.0 | 73.3 | 83.3 | 90.0 | 90.0 | 0.2% | 15% | 22.7% | 55.7% | 96.2% | 11.4 |  |  |  |  |  |  |  |
| O=S(=O)(CCC(F)=C(F)F)c1ncc(Cl)s1 [Fluensulfone, fluensulfone] |  |  |  |  |  |  |  |  |  |  |  | 73.3 | 36.4% | 41.7% | 48.1% | 54.7% | 69.1% | 25.7 |
